The nature of series [1]: Superoxide scavenging assay (pyrogallol autoxidation). Particulars: mean ± SEM of three experiments; pyrogallol autoxidation, 325 nm. On the procedure: The improved pyrogallol autoxidation method was used to determine O2^−. RSA of all synthesized compounds as previously described. Briefly, 50 µL of test compounds (12.5, 25, 50,100, and 200 µg/mL) was added to 2900 µl of […] Tris HCl buffer (0.05 M, pH 7.4) containing 1-mM Na2EDTA. Next, 50 µL of 60-mM pyrogallol in1mM HCl had been thoroughly mixed with the mixture. The absorbance of the reaction mixture was measured at A325 nm every 30 s for 5 min. O2^− RSA was expressed by the oxidation degree of a test group in comparison to that of the control. The absorbance at 325 nm was measured against the Tris-HCl buffer every 30 s for 5 min. The percentage of scavenging effect was calculated using the following equation: O2^− radical scavenging %=[(ΔA325, control/T)−(ΔA325nm, sample/T)/ΔA325nm, control/T]×100 where ΔA325 nm, control is the increase in A325 nm of the reaction mixture without the sample and ΔA325 nm, sample is that for the mixture with the sample; T=5 min. The experiments were performed in triplicate.

The nature of series [2]: NO scavenging assay (sodium nitroprusside / Griess reagent). Particulars: mean ± SEM of three experiments; 90 min, 546 nm. As for the experimental part:
The NO scavenging activity of all synthesized compounds was measured as previously described by Ho et al.[50] Briefly, 50 µL of different concentrations of the tested compounds (12.5, 25, 50,100, and 200 µg/mL) were pipetted into a 96-well plate. Then, 50 µL of 10-mM sodium nitroprussides dissolved in phosphate-buffered saline PBS (pH 7.4) were added to each well and the plate was incubated for 90 min at room temperature. Next, an equal volume of Griess reagent (1% of sulphanilamide and 0.1% of naphthyl ethylene diamine in 2.5% […]) was added to each well to measure the nitrite content. The absorbance of the formed pink-coloured chromophore was measured at λ 546 nm. DMSO and ascorbic acid were used as the negative and positive control, respectively. All tests were performed in triplicate. The percentage of NO scavenging activity was calculated according to the following equation: % of NO scavenging=[(Acontrol−Asample)/Acontrol]×100 where Acontrol is the absorbance of the control reaction (with all reagents except the test compound), and Asample is the absorbance of the test sample.
A general note: The Griess reaction detects nitrite, a stable product of nitric oxide.

Series [3] is described as follows: DPPH radical scavenging assay. The conditions noted are these: mean ± SEM of three experiments; 30 min, 517 nm. On the procedure:
The DPPH scavenging activity of all synthesized compounds was measured as previously described by Nahar et al.[48] with some modifications. Briefly, 100 µL of different concentrations of the tested compounds (12.5, 25, 50, 100, and 200 µg/mL) were pipetted into a 96-well plate. Then, 100 µL of 100-µM DPPH methanolic solution were added to each well and the plate was incubated protected from light at room temperature for 30 min. The absorbance of the solution was measured at λ517 nm.[49] Ascorbic acid was used as the positive control while DMSO was the negative control. The percentage of DPPH scavenging activity was calculated according to the following equation: % of DPPH scavenging=[(Acontrol–Asample)/Acontrol] ×100, where Acontrol is the absorbance of the control reaction (with all reagents except the test compound), and Asample is the absorbance of the test sample. […] All tests were performed in triplicates.

The values below come from article PMC7170299, “Design, synthesis, molecular modelling and biological evaluation of novel 3-(2-naphthyl)-1-phenyl-1H-pyrazole derivatives as potent antioxidants and 15-Lipoxygenase inhibitors” (Journal of Enzyme Inhibition and Medicinal Chemistry, 2020).

Broadly, the melting point is the temperature of the solid-liquid transition.

Take `O=C(/C=C/c1cn(-c2ccccc2)nc1-c1ccc2ccccc2c1)c1ccccc1` [Compound 2a, 3-(3-Naphthalen-2-yl-1-phenyl-1H-pyrazole-4-yl)-1-phenyl propenone]: the melting point is 158 to 159 °C. Further, the “Superoxide IC50” value in series [1] is reported as above 200 µg/mL. Moreover, the “NO IC50” value in series [2] is above 200 µg/mL. Further, in series [3], the “DPPH IC50” value is on record as above 200 µg/mL.

In the case of `O=C(/C=C/c1cn(-c2ccccc2)nc1-c1ccc2ccccc2c1)c1ccc(Cl)cc1` [Compound 2d, 1-(4-chlorophenyl)-3-(3-naphthalen-2-yl-1-phenyl-1H-pyrazol-4-yl)propenone], the melting point was 161 to 162 °C. For the same compound, in series [1], the “Superoxide IC50” value is above 200 µg/mL. Further, in series [2], the “NO IC50” value was above 200 µg/mL. For the same compound, in series [3], the “DPPH IC50” value is above 200 µg/mL.

Take `Clc1ccc(C2=NNC(c3cn(-c4ccccc4)nc3-c3ccc4ccccc4c3)C2)cc1` (centres unmarked) [Compound 3d, 5-(4-Chlorophenyl)-3′-naphthalen-2-yl-1′-phenyl-3,4-dihydro-2H,1’H-[3,4′] bipyrazole]: the melting point was in the range of 190 to 191 °C. For the same compound, the “Superoxide IC50” value in series [1] is above 200 µg/mL. For the same compound, the “NO IC50” value in series [2] is recorded as above 200 µg/mL. Further, in series [3], the “DPPH IC50” value is above 200 µg/mL.

On to `Clc1ccc(C2=NN(c3ccccc3)C(c3cn(-c4ccccc4)nc3-c3ccc4ccccc4c3)C2)cc1` (centres unmarked) [Compound 4d, 5-(4-Chlorophenyl)-3′-naphthalen-2-yl-2,1′-diphenyl-3,4-dihydro-2H,1'H-[3,4′] bipyrazole], for which the melting point was in the range of 192 to 193 °C. In series [1], the “Superoxide IC50” value is above 200 µg/mL. The “NO IC50” value in series [2] is above 200 µg/mL. For the same compound, in series [3], the “DPPH IC50” value is above 200 µg/mL.

As to `Clc1ccc(C2=NOC(c3cn(-c4ccccc4)nc3-c3ccc4ccccc4c3)C2)cc1` (centres unmarked) [Compound 5d, 3-(4-Chlorophenyl)-5-(3-naphthalen-2-yl-1-phenyl-1H-pyrazol-4-yl)-4,5-dihydro isoxazole], the melting point lay in the range of 185 to 186 °C. Besides, the “Superoxide IC50” value in series [1] is on record as above 200 µg/mL. Besides, in series [2], the “NO IC50” value is above 200 µg/mL. Further, the “DPPH IC50” value in series [3] is listed as above 200 µg/mL.
